One data set has as its system Rattus norvegicus. The following applies: for NOAEL: gavage.
The next data set deals with Oryctolagus sp. The following applies: developmental; development.
The next data set relates to Ictalurus punctatus. The settings on record: acute; duration: 96 hours; mortality.
For another data set, the system named is Tagia sp. The settings on record: chronic/long-term; mortality.
The subject of another data set is Pimephales promelas. The settings on record: chronic/long-term; duration: 56 days; mortality.
The subject of a further data set is Neomysis kadiakensis. The following applies: chronic/long-term; duration: 28 days; reproduction.
For the next data set, the system named is Apis mellifera. The settings on record: acute, duration: 48 hours, mortality.
Where [1] appears, read: chronic, duration: 2 years, histopathology: neoplastic.

Converted amounts (≈) assume the structure as drawn.

One may read the LOAEL as the lowest dose or exposure tested at which an adverse effect was seen. With `NC(=O)NC(=O)Nc1cc(Cl)c(O)c(Cl)c1` [N-(3,5-Dichloro-4-hydroxyphenyl)-2-imidodicarbonic diamide], the lowest observed adverse effect level (LOAEL) in the data set on Rattus norvegicus (setting [1]) came to 6.1 mg/kg-day; with Oryctolagus sp., 20 mg/kg-day.
Broadly, the LC50 is the concentration lethal to half of the exposed cells or organisms. A higher LC50 goes with a less lethal substance. In the data set on Ictalurus punctatus, `CC(C)NC(=O)N1CC(=O)N(c2cc(Cl)cc(Cl)c2)C1=O` came in with a 50% lethal concentration (LC50) of 3.1 µg/mL (≈ 9.39 µM). For the same compound, the LD50 is 3780 mg/kg-day with Colinus virginianus (acute, oral, mortality); more than 2000 mg/kg-day in the data set with Rattus norvegicus (acute, oral, mortality); more than 100 µg/piece with Apis mellifera (dermal); more than 100 µg/piece with Apis mellifera (oral, unspecified). Besides, in the data set with Colinus virginianus (reproduction developmental), the NOEL came out at 22.3 mg/kg-day. Further, the LOAEL is 6.1 mg/kg-day with Rattus norvegicus (setting [1]); 26.9 mg/kg-day with Rattus norvegicus (reproduction developmental, reproduction); 20 mg/kg-day in the data set on Oryctolagus sp.. Moreover, the NOEC with Tagia sp. is 1000 mg/kg; in the data set with Pimephales promelas, 0.0731 mg/L; in the data set on Neomysis kadiakensis, 0.0075 mg/L.
Broadly, the NOAEL is the highest dose or exposure tested at which no adverse effect was seen. For `NC(CCC(=O)Nc1cc(Cl)cc(Cl)c1)C(=O)O` (stereo unspecified) [N-(3,5-Dichlorophenyl)glutamine], the no observed adverse effect level (NOAEL) in the data set with Rattus norvegicus (short-term, duration: 28 days, oral, Wistar) came out at 7.5 mg/kg-day; in the data set with Rattus norvegicus (subchronic, duration: 90 days, oral, hematological) it was 1 mg/kg-day.

The values are drawn from EPA's ToxValDB 9.5 (doi:10.2903/j.efsa.2016.4609).
